Results on two compounds are retold here after patent US8486123B2, “Micro-organism-reducing device” (bredent medical GmbH & Co., KG, priority 2003, dated 2013).

For one data set, the system named is colon tumors. Conditions: 20 μg/mL, intratumorally applied, without irradiation; cited from earlier work.
A further data set has as its system Gram negative germs. In words: complete reduction of Gram negative germs. Type of data set: cell-based. Conditions: compared with 25-44 μmol for Gram positive bacteria. The text has this: (§1) Completely reducing Gram negative germs requires 3-30 times higher concentrations. P. aeruginosa was reduced […] by 3.5 log10 CFU at a concentration of 200˜mol and an energy density of 100 mW/cm^2.

Another data set concerns P. aeruginosa. Kind of data set: photodynamic reduction of P. aeruginosa. Type of data set: cell-based. Conditions: concentration of 200˜mol; energy density of 100 mW/cm^2.
Source text: as §1

Another data set relates to Gram positive bacteria. Kind of data set: in vitro reduction of Gram positive bacteria by methylene blue solutions. Type of data set: cell-based. An excerpt: Methylene blue solutions reduce almost all Gram positive bacteria in a concentration of 25-44 μmol in vitro.
The nature of data set [1]: penetration depth of MB solutions into normal oral mucosa. Conditions: after 10-min incubation time. The text has this: The clinical application of PDT is possible since the stain solutions selectively color cell systems, while the interaction with the epithelium is very limited. […] Furthermore, the life expectancy of the active radicals and their precursors is microseconds, so that it is practically assured that there are no concomitant destructive effects in healthy tissue due to diffusion, since there is not enough time for this.

Data set [2] has as its system all examined microorganisms. Kind of data set: in vitro reduction of microorganisms by methylene blue solutions in culture medium. Type of data set: cell-based. The note with it: culture medium being used.
The nature of data set [3]: distribution coefficient P. Type of data set: physicochemical.
Data set [4] has as its system Gram positive and Gram negative bacteria. Kind of data set: dark toxicity of the stains for bacteria. Conditions: TB compared with MB, without irradiation. Type of data set: cell-based. The procedure:
The observed dark toxicity was higher for toluidine blue (TB) than for methylene blue (MB). This is consistent with the distribution coefficient P that was determined to be 0.33 for TB and 0.11 for MB.
While dark toxicity for Gram positive bacteria was nearly unrelated to type, the dark toxicity for Gram negative bacteria is quite clearly a function of type and specifically corresponds to the trans-membrane permeability coefficient of the exterior membrane of Gram negative bacteria.
Dark toxicity was a function of both the concentration and the incubation period prior to irradiation.

Consider `CN(C)c1ccc2nc3ccc(=[N+](C)C)cc-3sc2c1` [Methylene blue, phenothiazin-5-ium, 3,7-bis(dimethylamino)-chloride], for which the “destruction of colon tumors by the substance alone” value in the data set with colon tumors is recorded as “not destroyed”. Besides, the “concentration needed for completely reducing Gram negative germs, relative to Gram positive bacteria” value with Gram negative germs is 3-30 times higher. Besides, the “reduction of P. aeruginosa” value in the data set with P. aeruginosa came to 3.5 log10 CFU. The “concentration that reduces almost all Gram positive bacteria” value in the data set on Gram positive bacteria lay within 25 to 44 µmol. For the same compound, the “penetration depth into the epithelium” value in data set [1] was 1-2 exterior layers of cells. Also, in data set [2], the “reduction of the number of microorganisms in the culture medium” value is “able to reduce the number of all examined microorganisms”.
Consider `Cc1cc2nc3ccc(N(C)C)cc3[s+]c2cc1N.[Cl-]` [TB, toluidine blue], for which, in data set [3], the “distribution coefficient P” value was found to be 0.33. The observed dark toxicity entry in data set [4] is on record as “higher”.
